# Measured values: article PMC8151276, “An Integrated Approach toward NanoBRET Tracers for Analysis of GPCR Ligand Engagement” (Molecules, 2021)
# Experiments:
# Format in all cases: binding
# CXCR1 = target: T1, CXCR1 (Homo sapiens, UniProt P25024); experiment: NanoBRET screen HiBiT-CXCR1 in HEK293
# T1 construct: purchased Promega (in-house HiBiT-GPCR construct library, NanoBRET)
# T1 sequence (P25024 1-350): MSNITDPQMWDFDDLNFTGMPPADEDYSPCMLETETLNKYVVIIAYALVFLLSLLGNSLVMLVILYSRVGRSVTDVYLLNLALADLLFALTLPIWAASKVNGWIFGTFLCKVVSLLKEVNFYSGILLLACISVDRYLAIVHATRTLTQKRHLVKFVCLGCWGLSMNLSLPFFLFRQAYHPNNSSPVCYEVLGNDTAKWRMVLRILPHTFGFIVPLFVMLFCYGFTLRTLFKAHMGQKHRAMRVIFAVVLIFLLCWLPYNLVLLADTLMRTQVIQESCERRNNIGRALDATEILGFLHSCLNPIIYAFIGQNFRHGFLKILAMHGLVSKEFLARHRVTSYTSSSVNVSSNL
# Method: (§1) Each tracer candidate was screened across the entire library of HiBiT-GPCR constructs using NanoBRET as the detection modality. As depicted in Figure 4A, the specificity of interactions was evaluated through decrease in BRET due to competitive displacement of a bound tracer by excess parental compound. Each tracer was analyzed for binding to each HiBiT-GPCR fusion in the absence and in the presence of competing parental compound. Briefly, HEK293 cells were transfected with HiBiT-GPCR constructs diluted into promoterless DNA to reduce expression and maximize translocation to the cell surface. Each tracer candidate was then screened at concentrations of 1 μM and 0.1 μM across cells expressing these fusions. Cells were treated for 1.5 h with tracer either alone or in the presence of 20 μM competing parental compound (i.e., control). BRET was measured upon addition of purified LgBiT and subsequent complementation with HiBiT genetically fused to a GPCR. The specificity of interactions was assessed through a decrease in BRET signal due to competitive displacement of the bound tracer. To further gauge the robustness of these interactions, the fold response over the control (i.e., BRETtracer/BRETcontrol) was calculated. We chose a 1.5-fold response, which translates to ≥7-fold signal over noise as the minimal threshold required to score an interaction as positive. […]. Below we highlight the screening results obtained for our exemplary fluorescent tracers based on Clozapine, Amitriptyline and AZD1283.
# (§2) HiBiT-GPCR DNA constructs were diluted in 10 mM Tris pH 8 to a final concentration of 0.01 μg/μL, arrayed in 96-well plates and stored at −20 °C. For transfection, HEK293 cells were suspended in Opti-MEM (without phenol red) supplemented with 2% fetal bovine serum (Seradigm) and 100 units/mL penicillin–streptomycin (Gibco) at a final concentration of 220,000 cells/mL and dispensed into white 96-well plates at 90 μL/well. Subsequent transfections and screens were carried using an Agilent Bravo Automated Liquid Handling Platform. First, the 96-well HiBiT DNA arrays were diluted 25-fold in Opti-MEM (without serum or phenol red) to a final concentration of 0.0004 μg/μL and 20 μL of the diluted DNAs were transferred into new 96-well plates. Next, promoterless carrier DNA (1 μg/μL) was diluted 25-fold (0.04 μg/μL) and then dispensed into the diluted arrays at 20 μL/well. Following brief mixing, Viafect transfection reagent (Promega) diluted 16-fold into Opti-MEM was dispensed into the plates at 40 μL/well. After mixing by pipetting, plates were incubated for 10 min on the pipetting station deck. The DNA-transfection reagent complexes were then added to plates containing cells. To facilitate the screen, 10 μL of DNA-transfection reagent complexes were added in duplicates to the top 4 and bottom 4 rows, resulting in two identical 48-well arrays per plate. Plates with transfected cells were incubated for 18–20 h at 37 °C/5% CO2. A screen of each tracer across the entire library using two different concentrations requires duplicate plates of transfected cells. Depending on the number of tracers being screened, transfections can be scaled up using the same ratios. The next day, for each tracer, four 20× screening solutions in tracer dilution buffer (Promega) were prepared: two duplicates at final concentration of 20 μM and two duplicates at a final concentration of 2 μM. A competing unmodified compound was added to one of each duplicate at a final concentration of 400 μM. The four resulting solutions were diluted 4-fold in Opti-MEM without serum or phenol red to generate 5× solutions (5 µM and 0.5 µM tracer +/− 100 μM competing compound). To screen the library, a BioTek MultiFlo FX liquid dispenser was used to dispense 22.5 µL of tracer solution to the top 4 rows and 22.5 µL tracer + competing compound solution to the 4 bottom rows. Plates were briefly mixed on an orbital shaker and incubated for 1.5 h at room temperature. […]
# GALR1 = target: T2, GALR1 (Homo sapiens, UniProt P47211); experiment: NanoBRET screen HiBiT-GALR1 in HEK293
# T2 construct: purchased Promega (in-house HiBiT-GPCR construct library, NanoBRET)
# T2 sequence (P47211 1-349): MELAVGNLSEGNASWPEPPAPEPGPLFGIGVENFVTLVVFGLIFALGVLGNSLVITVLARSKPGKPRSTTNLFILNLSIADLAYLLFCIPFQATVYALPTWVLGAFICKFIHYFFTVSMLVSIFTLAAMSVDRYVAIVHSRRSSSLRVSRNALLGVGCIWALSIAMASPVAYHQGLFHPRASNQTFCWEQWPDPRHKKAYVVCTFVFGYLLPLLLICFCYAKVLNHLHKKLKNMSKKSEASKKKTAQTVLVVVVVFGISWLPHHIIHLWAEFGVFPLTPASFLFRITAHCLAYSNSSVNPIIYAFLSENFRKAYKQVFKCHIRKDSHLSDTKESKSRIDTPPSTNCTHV
# Method: as §1, §2
# TACR3 = target: T3, TACR3 (Homo sapiens, UniProt P29371); experiment: NanoBRET screen HiBiT-TACR3 in HEK293
# T3 construct: purchased Promega (in-house HiBiT-GPCR construct library, NanoBRET)
# T3 sequence (P29371 1-465): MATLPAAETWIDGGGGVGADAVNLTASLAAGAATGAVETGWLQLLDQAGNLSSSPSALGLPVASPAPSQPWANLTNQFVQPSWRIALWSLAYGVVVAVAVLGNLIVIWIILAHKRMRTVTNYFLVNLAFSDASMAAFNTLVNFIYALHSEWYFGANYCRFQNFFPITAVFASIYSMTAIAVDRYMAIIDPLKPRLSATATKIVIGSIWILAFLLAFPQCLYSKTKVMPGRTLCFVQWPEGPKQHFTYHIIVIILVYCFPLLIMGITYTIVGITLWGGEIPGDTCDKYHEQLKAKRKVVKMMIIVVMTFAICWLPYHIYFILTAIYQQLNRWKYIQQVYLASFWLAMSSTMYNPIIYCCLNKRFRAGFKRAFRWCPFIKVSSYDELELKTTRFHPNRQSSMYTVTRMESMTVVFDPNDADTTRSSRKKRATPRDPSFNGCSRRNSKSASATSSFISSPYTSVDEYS
# Method: as §1, §2
# [1] = tracer at 1μM, listed as amitriptyline-b-2-NB590
SMILES,"NanoBRET Fold Response (CXCR1; CXCR1, tracer 0.1μM)","NanoBRET Fold Response (CXCR1; CXCR1, tracer 1μM)","NanoBRET Fold Response (GALR1; GALR1, tracer 0.1μM)","NanoBRET Fold Response (GALR1; GALR1, tracer 1μM)","NanoBRET Fold Response (TACR3; TACR3, tracer 0.1μM)","NanoBRET Fold Response (TACR3; TACR3, tracer 1μM)",other results
Cc1nc2n(c(=O)c1CCN1CCC(c3noc4cc(F)ccc34)CC1)CCCC2OC(=O)NCCOCCOCCOCCOCCNC(=O)CCc1ccc2n1[B-](F)(F)[N+]1=C(c3ccc[nH]3)C=CC1=C2 (centres unmarked) [Risperidone-2-NB590],1.01,0.91,1.00,0.99,1.04,1.10,–
CCOC(=O)c1cc(C#N)c(N2CCC(C(=O)NS(=O)(=O)Cc3ccccc3/C=C/C(=O)NCCNC(=O)CCc3ccc4n3[B-](F)(F)[N+]3=C(c5ccc[nH]5)C=CC3=C4)CC2)nc1C [AZD1283-1-NB590],–,–,–,–,–,–,"NanoBRET Fold Response (CXCR1; CXCR1, 0.1μM): 1.09; NanoBRET Fold Response (CXCR1; CXCR1, 1μM): 1.13; NanoBRET Fold Response (GALR1; GALR1, 0.1μM): 1.03; NanoBRET Fold Response (GALR1; GALR1, 1μM): 1.09; NanoBRET Fold Response (TACR3; TACR3, 0.1μM): 1.10; NanoBRET Fold Response (TACR3; TACR3, 1μM): 1.10"
Cc1cc2c(s1)Nc1ccccc1N=C2N1CCN(CCCNC(=O)CCOCCOCCOCCOCCNC(=O)CCc2ccc3n2[B-](F)(F)[N+]2=C(c4ccc[nH]4)C=CC2=C3)CC1 [Olanzapine-a-2-NB590],1.00,0.99,1.03,1.09,1.00,0.95,–
COc1ccccc1N1CCN(CCCCN2C(=O)c3ccc(CNC(=O)CCOCCNC(=O)c4ccc(CNC(=O)CCc5ccc6n5[B-](F)(F)[N+]5=C(c7ccc[nH]7)C=CC5=C6)cc4)cc3C2=O)CC1 [NAN-190-3-NB590],0.93,0.83,1.09,0.99,0.97,0.96,–
CC(C)N(CC[C@H](c1ccccc1)c1cc(CCNC(=O)CCOCCOCCOCCOCCNC(=O)CCc2ccc3n2[B-](F)(F)[N+]2=C(c4ccc[nH]4)C=CC2=C3)ccc1O)C(C)C [Tolterodine-2-NB590],1.27,1.06,1.04,0.99,1.11,1.08,–
CN(C)CCC=C1c2ccccc2CCc2ccc(C(=O)NCCNC(=O)CCOCCOCCOCCOCCNC(=O)CCc3ccc4n3[B-](F)(F)[N+]3=C(c5ccc[nH]5)C=CC3=C4)cc21 [Amitriptyline-b-2-NB590],–,–,–,–,–,–,"NanoBRET Fold Response (CXCR1; tracer at 0.1μM): 0.97; NanoBRET Fold Response (CXCR1; [1]): 1.11; NanoBRET Fold Response (GALR1; tracer at 0.1μM, listed as amitriptyline-b-2-NB590): 0.98; NanoBRET Fold Response (GALR1; [1]): 1.03; NanoBRET Fold Response (TACR3; [1]): 0.97"
O=C(CCOCCOCCOCCOCCNC(=O)CCc1ccc2n1[B-](F)(F)[N+]1=C(c3ccc[nH]3)C=CC1=C2)NCCCN1CCN(C2=Nc3ccccc3Oc3ccc(Cl)cc32)CC1 [Loxapine-a-2-NB590],1.02,0.94,1.03,1.21,1.08,1.11,–
CN(C)CCC=C1c2ccccc2CCc2ccc(C(=O)NCCNC(=O)CCOCCOCCOCCOCCNC(=O)CCc3ccc4n3[B-](F)(F)[N+]3=C(c5ccc[nH]5)C=CC3=C4)cc21 [Amitriptyline-a-2-NB590],–,–,–,–,–,–,NanoBRET Fold Response (CXCR1; tracer at 0.1μM): 1.05; NanoBRET Fold Response (CXCR1; tracer at 1μM): 0.97; NanoBRET Fold Response (GALR1; tracer at 0.1μM): 1.05; NanoBRET Fold Response (GALR1; tracer at 1μM): 0.97; NanoBRET Fold Response (TACR3; tracer at 1μM): 1.03
O=C(CCc1ccc2n1[B-](F)(F)[N+]1=C(c3ccc[nH]3)C=CC1=C2)NCCOCCOCCNC(=O)OCCOCCN1CCN(C2=Nc3ccccc3Sc3ccccc32)CC1 [Quetiapine-a-2-NB590],0.98,0.95,1.02,0.76,1.04,0.83,–
COc1ccccc1N1CCN(CCCCN2C(=O)c3ccc(CNC(=O)CCOCCOCCOCCOCCNC(=O)CCc4ccc5n4[B-](F)(F)[N+]4=C(c6ccc[nH]6)C=CC4=C5)cc3C2=O)CC1 [NAN-190-2-NB590],0.97,1.05,1.02,–,–,–,–
CN1CCN(C2=Nc3cc(Cl)ccc3N(CC(=O)NCCOCCOCCOCCOCCNC(=O)CCc3ccc4n3[B-](F)(F)[N+]3=C(c5ccc[nH]5)C=CC3=C4)c3ccccc32)CC1 [Clozapine-c-2-NB590],–,–,–,–,–,–,"NanoBRET Fold Response (CXCR1; CXCR1, 0.1μM tracer): 0.99; NanoBRET Fold Response (CXCR1; CXCR1, 1μM tracer): 0.94; NanoBRET Fold Response (GALR1; GALR1, 0.1μM tracer): 1.02; NanoBRET Fold Response (GALR1; GALR1, 1μM tracer): 1.03; NanoBRET Fold Response (TACR3; TACR3, 0.1μM tracer): 1.00; NanoBRET Fold Response (TACR3; TACR3, 1μM tracer): 1.00"
COc1ccc2[nH]c(-c3ccc(CNC(=O)CCOCCOCCOCCOCCNC(=O)CCc4ccc5n4[B-](F)(F)[N+]4=C(c6ccc[nH]6)C=CC4=C5)cc3)c(CCNC(C)=O)c2n1 [AzomelatoninICO9-2-NB590],–,–,–,–,–,–,NanoBRET Fold Response (CXCR1; 0.1μM tracer): 1.06; NanoBRET Fold Response (CXCR1; 1μM tracer): 0.96; NanoBRET Fold Response (GALR1; 0.1μM tracer): 0.87; NanoBRET Fold Response (GALR1; 1μM tracer): 1.05; NanoBRET Fold Response (TACR3; 0.1μM tracer): 1.23; NanoBRET Fold Response (TACR3; 1μM tracer): 1.00
CN(CCC=C1c2ccccc2CCc2ccccc21)C(=O)CCOCCOCCOCCOCCNC(=O)CCc1ccc2n1[B-](F)(F)[N+]1=C(c3ccc[nH]3)C=CC1=C2 [Amitriptyline-e-2-NB590],–,–,–,–,–,–,NanoBRET Fold Response (CXCR1; tracer at 1μM): 0.93
